Experimental data published in patent publication US20240398947A1, “CAR T-CELL ADJUVANT THERAPIES” (CytoAgents, Inc., priority 2020, published 2024).

Assays:
[1] = tested on: normal human PBMC; test: AlamarBlue cell viability of treated PBMC; type: cell-based; conditions: PBMC of Donors 1-5, 48 hours post stimulation, GP1681 750 μM
Description: Following pre-treatment, cells were stimulated with either LPS or Poly (I:C). Twenty-four to forty-eight hours post-stimulation supernatants were collected and tested both for viability (48 hours) as well as concentrations of 29 different cytokines (24 hours.). Viability assessments confirmed the lack of GP1681-associated cell cytotoxicity. Statistical comparisons in individual donor results were conducted between all test groups within each donor group (between individual stimulant-treatment pairs) to determine efficacy of stimulation as well as any potential GP1681 effects on cytokine production. Additionally, statistical analysis was performed on pooled donor data for each cytokine stimulant-treatment pair to comprehensively determine cytokine suppression effects of GP1681 for each cytokine.
After resting the cells, 100 μl of GP1681 was added to appropriate wells at a final dosing concentration of 750 μM. […] For cell stimulation, 20 μL of the 1.0 ng/ml LPS solution or the 250 μg/ml Poly (I:C) solution were added to appropriate wells according to the group designation. Twenty-four hours later 100 uL of supernatant were collected from all wells and stored for cytokine analysis. Approximately four hours before final harvest, AlamarBlue dye was added to all wells. At forty-eight hours post stimulation all samples were collected, and supernatants tested for cell viability. […]

[2] = tested on: normal human PBMC; test: Cytokine release assay in stimulated normal human PBMC (Luminex multiplex); type: cell-based; conditions: for significant reduction of IL-1α / significant reduction of IL-1β: 5 donors
[3] = tested on: influenza (H1N1); type: in vivo, mice
[4] = tested on: CRS; test: Mouse model of CAR T-cell therapy induced CRS (Raji-luc tumor); conditions: IP, BID for 7 days
[5] = tested on: influenza (H5N1); conditions: in vivo influenza (H5N1), Gemmus Pharma studies; cited from earlier work
[6] = LPS-stimulated PBMC, 24 h supernatant, DEX 1 μM, GP1681 750 μM
[7] = Poly(I:C)-stimulated PBMC, 24 h supernatant, DEX 1 μM, GP1681 750 μM
[8] = in vivo influenza (H1N1), current CytoAgents studies

CC#CC[C@H](C)[C@H](O)/C=C/[C@@H]1[C@H]2c3cccc(CCCC(=O)[O-])c3O[C@H]2C[C@H]1O.[Na+] [GP1681, esuberaprost sodium salt]
cytotoxicity (Alamar blue viability assessment) [1]: no cytotoxicity | number of cytokines reduced of the 29 cytokines analyzed ([2]; LPS or Poly(I:C) stimulated PBMC, pooled and individual donor results): 21 | significant reduction of IL-1α [2, 6]: YES | significant reduction of IL-1β [2, 6]: YES | significant reduction of CCL2 (MCP-1) [2, 6]: YES | significant reduction of CCL3 (MIP1 α) [2, 6]: YES | significant reduction of CCL5 (RANTES) [2, 6]: YES | significant reduction of CXCL9 (MIG) [2, 6]: YES | significant reduction of CXCL10 (IP-10) [2, 6]: YES | significant reduction of FGF [2, 6]: YES | significant reduction of GM-CSF [2, 6]: YES | significant reduction of IFN-α2 [2, 6]: YES | significant reduction of IFN-γ [2, 6]: YES | significant reduction of IL-4 [2, 6]: YES | significant reduction of IL-5 [2, 6]: YES | significant reduction of IL-9 [2, 6]: YES | significant reduction of IL-12 [2, 6]: YES | significant reduction of IL-13 [2, 6]: YES | significant reduction of IL-15 [2, 6]: YES | significant reduction of IL-17 [2, 6]: YES | significant reduction of IL-18 [2, 6]: YES | significant reduction of PDGF [2, 6]: YES | significant reduction of TNF α [2, 6]: YES | significant reduction of IL-1α [2, 7]: YES | significant reduction of IL-1β [2, 7]: YES | significant reduction of CCL2 (MCP-1) [2, 7]: YES | significant reduction of CCL5 (RANTES) [2, 7]: YES | significant reduction of CXCL9 (MIG) [2, 7]: YES | significant reduction of CXCL10 (IP-10) [2, 7]: YES | significant reduction of IFN-α2 [2, 7]: YES | significant reduction of IFN-γ [2, 7]: YES | significant reduction of IL-4 [2, 7]: YES | significant reduction of IL-5 [2, 7]: YES | significant reduction of IL-12 [2, 7]: YES | significant reduction of IL-13 [2, 7]: YES | significant reduction of IL-15 [2, 7]: YES | significant reduction of IL-18 [2, 7]: YES | significant reduction of PDGF [2, 7]: YES | significant reduction of TNF α [2, 7]: YES | number of different cytokines whose production is down regulated ([2]; data from Gemmus Pharma, Inc studies and the present work together): approximately 25 | nominal reduction in the ex vivo production of IFNα ([2]; stimulated PBMC, statistically significant): less than 2 fold | IL-2 reduced by treatment [3, 8]: reduced | IL-6 reduced by treatment [3, 8]: reduced | IL-10 reduced by treatment [3, 8]: reduced | IL-8 production suppressed by treatment ([3]; mouse, in vivo): significantly suppressed | repression of IFNα concentrations ([3]; mouse, in vivo): no significant repression | cytokine production, comparison with dexamethasone [4]: superior to dexamethasone | survival benefits over dexamethasone [4]: greater survival benefits | IL-2 reduced by treatment [5]: reduced | IL-6 reduced by treatment [5]: reduced | IL-8 reduced by treatment [5]: reduced | IL-10 reduced by treatment [5]: reduced
